From ChEMBL document CHEMBL5365506, “Novel Haloacethydrazides as AEP Inhibitors for Treating Alzheimer's Disease” (ACS Med Chem Lett, 2023)

target: T1, Legumain (Homo sapiens, UniProt Q99538); assay: Inhibition of human 8His-tagged AEP (V18 to Y433 residues) using Z-Ala-Ala-Asn-Rhl 10-(D-Pro) as substrate incubated for 30 mins followed by substrate addition by fluorescence based microplate reader analysis
T1 sequence (Q99538 whole entry): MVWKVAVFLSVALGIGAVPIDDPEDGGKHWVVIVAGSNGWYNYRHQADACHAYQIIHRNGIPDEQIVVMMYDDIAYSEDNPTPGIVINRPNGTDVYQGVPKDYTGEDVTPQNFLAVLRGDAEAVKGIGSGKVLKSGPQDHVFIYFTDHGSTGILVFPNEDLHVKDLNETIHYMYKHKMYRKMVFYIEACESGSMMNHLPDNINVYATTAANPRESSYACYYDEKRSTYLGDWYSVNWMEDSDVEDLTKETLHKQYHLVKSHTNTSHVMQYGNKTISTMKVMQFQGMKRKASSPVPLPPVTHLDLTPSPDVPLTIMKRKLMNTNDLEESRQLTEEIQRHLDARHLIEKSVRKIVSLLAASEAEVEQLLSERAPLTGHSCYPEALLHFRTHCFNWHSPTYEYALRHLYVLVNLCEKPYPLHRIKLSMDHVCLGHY

Structure (SMILES) | IC50
C#CCOc1ccc(C2(C(=O)N3CCC[C@H]3C(=O)NN(CC(N)=O)C(=O)CF)CC2)cc1 | 1 nM
COc1ccc(-c2ccc(S(=O)(=O)N3CCC[C@H]3C(=O)NN(CC(N)=O)C(=O)CF)cc2)cc1 | 1 nM
NC(=O)CN(NC(=O)[C@@H]1CCCN1C(=O)C1(c2ccc(Cl)cc2)CCC1)C(=O)CF | 1 nM
C#Cc1ccc(C2(C(=O)N3CCC[C@H]3C(=O)NN(CC(N)=O)C(=O)CF)CC2)cc1 | 1 nM
